# According to patent publication US20100016435A1, “HYBRID MOLECULES HAVING MIXED VITAMIN D RECEPTOR AGONISM AND HISTONE DEACETYLASE INHIBITORY PROPERTIES” (McGill University, priority 2006, published 2010):
# Columns and labels:
# [1] = tested on: SCC4 cells; test: Acidic β-galactosidase activity (marker of autophagy), X-Gal staining and 620 nm measurement; assay type: cell-based, human; conditions: qualitative, FIG. 10A
# Excerpt: FIG. 10 is an illustration of the effects of 1, 3, 1+3 and 6 on the induction of acidic β-galactosidase activity, a marker of autophagy (A); FIG. 10 is an illustration of the effects 1, 3, 1+3 and 6 on the levels of β-galactosidase expression as obtained by measuring the indigo cleavage product of X-Gal at 620 nm (B).
# Since it was observed that treatment with 1 could enhance cell death by autophagy (ref. 26), the effects of different treatments on the induction of acidic β-galactosidase activity, a marker of autophagy (FIG. 10A) was tested.
# [2] = biological target: HDAC6 (Homo sapiens, UniProt Q9UBN7); conditions: cited from earlier work
# [3] = biological target: T1, human VDR (Homo sapiens, UniProt P11473); test: Reporter gene assay (VDRE-luciferase) in transiently transfected COS7 cells; assay type: cell-based
# T1 construct: expressed in transfected cells; host or cells: COS7
# T1 sequence (P11473 1-427): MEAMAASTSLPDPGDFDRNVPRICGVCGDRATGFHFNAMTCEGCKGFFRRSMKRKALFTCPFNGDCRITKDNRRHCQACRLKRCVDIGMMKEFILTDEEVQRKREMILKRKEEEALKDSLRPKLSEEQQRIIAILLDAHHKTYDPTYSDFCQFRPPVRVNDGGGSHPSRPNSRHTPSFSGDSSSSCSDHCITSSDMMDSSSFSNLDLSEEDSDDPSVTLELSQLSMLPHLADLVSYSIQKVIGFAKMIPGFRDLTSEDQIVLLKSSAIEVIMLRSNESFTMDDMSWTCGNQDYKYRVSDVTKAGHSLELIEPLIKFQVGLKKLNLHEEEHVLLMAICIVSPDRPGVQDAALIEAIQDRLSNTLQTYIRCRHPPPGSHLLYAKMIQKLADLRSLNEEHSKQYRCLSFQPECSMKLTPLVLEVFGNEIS
# Procedure: FIG. 2 is an illustration of the vitamin D receptor agonist activity of 6 using a reporter gene assay in transiently transfected COS7 cells.
# Hybrid molecule 6 was tested for calcitriol agonist activity using a reporter gene assay under standard conditions.^25,26 COS7 cells were transiently co-transfected with a plasmid expression vector for the human VDR, a plasmid vector expressing bacterial β-galactosidase from a constitutively active promoter (as an internal control for transfection efficiency), and a vector containing a luciferase reporter gene, under control of a previously described synthetic promoter composed of three high affinity VDREs (Vitamin D Response Elements) placed immediately upstream of a truncated promoter region from the herpes simplex virus thymidine kinase gene.^25 Cells were left overnight in the presence of DNA and transfection reagent (lipofectamine). The media were changed and cells were incubated in fresh media containing either vehicle (DMSO), 1 (100 nM), 3 (15 nM), 1 and 3 combined (100 nM/15 nM) or 6 (100 nM), and incubated a further 36 h.
# [4] = tested on: SCC4 cells; test: Antiproliferative activity in SCC4 cells; conditions: 3 alone, data not shown
# [5] = tested on: α-tubulin; test: α-Tubulin acetylation in SCC4 cells, Western blot; assay type: cell-based, human; conditions: 3 15 nM; 36 or 39 10^−6 or 10^−7M; 6 h or 24 h, FIG. 6C
# Excerpt: (§1) FIG. 4 is an illustration of the HDAC inhibitory activity of 3 in the SCC4 cell line. FIG. 4A is an illustration of a western blot of nuclear and cytoplasmic extracts of SCC4 cells treated with vehicle (−), 1, or 3 alone or in combination, as indicated. The 55 kDa band corresponds to the molecular weight of tubulin. FIG. 4B illustrates a western blot probed with an antibody directed against acetylated histone H4 (AcH4) showing the effects of the treatments described in A on acetylation of histone H4. FIG. 4C illustrates western blots of the effects of treatments described in A on levels of total alpha-tubulin (left) and acetylated alpha-tubulin (right).
# FIG. 6 is a comparison of the HDAC inhibitory activities of 1, 3, 6, 36 or 39 as assessed by their effects on acetylation of alpha-tubulin. In A, SCC4 cells were incubated with vehicle or compound 1 (10^−6M), 3 (15 nM), 6 (10^−6M) and 36 (10^−6M), as indicated for 6 h and protein extracts were probed for total α-tubulin (Tub.) or acetylated α-tubulin (AcTub.) by Western blotting. Blots for acetylated alpha-tubulin and total alpha-tubulin are shown. In B, SCC4 cells were incubated with vehicle or compound 3 (15 nM), 6 (10^−6M) or 36 (10^−6M) as indicated for 6 h or 24 h and protein extracts were probed for acetylated α-tubulin (AcTub.) by Western blotting. In C, SCC4 cells were incubated with vehicle or compounds 3 (15 nM), 36 (10^−6 or 10^−7M) or 39 (10^−6 or 10^−7M) as indicated for 6 h or 24 h and protein extracts were probed for total α-tubulin (tub.) or acetylated α-tubulin (AcTub.) by Western blotting.
# (§2) In preliminary experiments, TSA-inducible protein acetylation was analyzed in nuclear and cytoplasmic extracts of SCC4 cells treated for 6 h with 1, 3, or 1 and 3 and subsequently probed by Western blotting for protein acetylation using an anti-acetyllysine antibody. […] Effects of 3 on histone acetylation specifically, were confirmed by probing for acetylation of histone H4 (FIG. 4B). […] However, it was not clear whether this corresponded to enhanced expression or acetylation. […] This was confirmed by probing cytoplasmic fractions with an antibody that recognized α-tubulin (FIG. 4C). Calcitriol (1) had no effect on the acetylation of α-tubulin, and none of the treatments had any substantial effect on total α-tubulin expression (FIG. 4C).
# SCC4 cells were incubated with vehicle or compound as indicated for 6 h and cytoplasmic protein extracts were probed by Western blotting using a specific antibody for acetylated α-tubulin.
# [6] = tested on: SCC25 cells; test: Antiproliferative activity in SCC25 cells; assay type: cell-based; conditions: 1 at 1 nM or 100 nM; 3 15 nM; combination 3 with 100 nM 1; FIG. 7B
# Excerpt: FIG. 7 is an illustration of the antiproliferative activities of 1 and 3, individually or in combination, in SCC4 cells (A) or in SCC25 cells (B) at the concentrations indicated.
# [7] = tested on: SCC4 cells; test: Protein acetylation in nuclear and cytoplasmic extracts, Western blot with anti-acetyllysine antibody; assay type: cell-based, human; conditions: 6 h
# Excerpt: as §1, §2
# [8] = tested on: SCC4 cells; test: Immunocytochemical and morphological analysis (mitotic catastrophe); assay type: cell-based, human
# Excerpt: FIG. 12 is an illustration of the immunocytochemical analysis of the effects of 1, 3, or 1 and 3 combined on SCC4 cells (A). […] Both phenotypes are characteristics of mitotic catastrophe. The lower panels (B) show cytoplasmic bridges between SCC4 cells treated with 1 and 3, consistent with the formation of the tubulin bridges seen above in A.
# Assembly into microtubules is regulated by acetylation. […] Previous studies have shown that microtubule stabilizing agents can induce mitotic catastrophe (ref. 30). […] The formation of intercellular microtubular structures was consistent with observations in the light microscope of numerous intercellular bridges in cells treated with both 1 and 3 (FIG. 12B, arrows), but not in other treatment groups (not shown).
# [9] = tested on: histone H4; test: Histone H4 acetylation, Western blot; assay type: cell-based, human; conditions: SCC4 cells, 6 h
# Excerpt: as §1, §2
# HDAC6, sequence (Q9UBN7 whole entry, species assumed): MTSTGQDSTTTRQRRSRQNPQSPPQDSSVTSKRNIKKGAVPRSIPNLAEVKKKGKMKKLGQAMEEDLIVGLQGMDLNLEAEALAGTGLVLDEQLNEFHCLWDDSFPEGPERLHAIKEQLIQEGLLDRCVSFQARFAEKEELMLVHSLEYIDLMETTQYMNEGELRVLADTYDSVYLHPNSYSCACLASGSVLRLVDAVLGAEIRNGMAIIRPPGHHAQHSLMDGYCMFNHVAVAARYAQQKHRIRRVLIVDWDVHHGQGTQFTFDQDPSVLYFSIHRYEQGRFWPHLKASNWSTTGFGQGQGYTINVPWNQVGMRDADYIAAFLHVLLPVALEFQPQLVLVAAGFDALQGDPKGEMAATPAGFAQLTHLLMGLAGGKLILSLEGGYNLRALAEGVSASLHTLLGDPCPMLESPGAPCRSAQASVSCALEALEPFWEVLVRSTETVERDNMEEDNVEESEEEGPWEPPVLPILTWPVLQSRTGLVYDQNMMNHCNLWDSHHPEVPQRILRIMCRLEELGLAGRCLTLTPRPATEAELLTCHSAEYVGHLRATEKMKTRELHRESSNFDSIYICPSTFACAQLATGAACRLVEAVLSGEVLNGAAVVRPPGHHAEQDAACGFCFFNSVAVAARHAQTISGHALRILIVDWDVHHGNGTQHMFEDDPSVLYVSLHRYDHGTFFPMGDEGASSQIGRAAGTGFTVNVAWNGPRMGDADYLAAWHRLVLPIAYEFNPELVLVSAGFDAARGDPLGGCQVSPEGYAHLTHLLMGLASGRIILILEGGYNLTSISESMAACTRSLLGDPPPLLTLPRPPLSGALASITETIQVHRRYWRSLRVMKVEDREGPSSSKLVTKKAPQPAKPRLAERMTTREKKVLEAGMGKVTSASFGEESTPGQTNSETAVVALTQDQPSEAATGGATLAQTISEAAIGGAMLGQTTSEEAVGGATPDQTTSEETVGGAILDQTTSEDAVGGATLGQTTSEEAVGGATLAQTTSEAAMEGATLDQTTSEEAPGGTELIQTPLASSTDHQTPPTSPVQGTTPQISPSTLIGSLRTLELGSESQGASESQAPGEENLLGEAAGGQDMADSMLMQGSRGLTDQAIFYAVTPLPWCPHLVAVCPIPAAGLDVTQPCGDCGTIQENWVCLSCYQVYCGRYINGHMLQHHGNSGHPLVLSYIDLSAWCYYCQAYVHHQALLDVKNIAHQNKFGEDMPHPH
smiles,measurement,setting,value
"CC(/C=C/C(=O)NO)=C\[C@@H](C)C(=O)c1ccc(N(C)C)cc1 [compound 3, trichostatin A]","acidic β-galactosidase staining (X-Gal, pH 4.0), cytochemical",[1],weak or relatively modest effects
same,HDAC6 activity,[2],can be blocked
same,reporter gene activity (calcitriol agonist activity),"[3]; COS7, 36 h, 1 100 nM, 3 15 nM, 6 100 nM, not normalized",no substantial effect
same,expression from the internal control plasmid (β-galactosidase),[3]; COS7 cells,modestly affects expression
same,SCC4 proliferation,[4]; 50 nM,completely inhibited
same,cell death,[4]; concentrations higher than 50 nM,substantial cell death
same,levels of acetylated alpha-tubulin normalized for total alpha-tubulin,[5],Elevated levels
same,SCC25 proliferation / sensitivity,[6],substantially less sensitive
same,"acetylation of a 55 kDa protein, likely tubulin",[7]; cytoplasmic extracts,markedly enhanced
same,acetylation of low molecular weight nuclear proteins,[7]; nuclear extracts,markedly enhanced
same,cell morphology,[8]; FIG. 12,did not differ from control cells
same,induction of mitotic catastrophe,[8]; SCC4 cells,not 1 or 3 alone
same,histone H4 acetylation,[9],markedly enhanced
